Assay results from PMC4016748, “Using ^15N-Ammonium to Characterise and Map Potassium Binding Sites in Proteins by NMR Spectroscopy” (Chembiochem, 2014).

Key:
HDAC8 = HDAC8 (Homo sapiens, UniProt Q9BY41); assay: biochemical
DnaK-ABD [1] = target: T1, DnaK-ABD (Thermus thermophilus, UniProt Q56235); details: 150 mM 15NH4Cl, 5 mM MgCl2, 0.5 mM ADP, 50 mM phosphate, 1 mM DTT, pH 7.5; two sites; 15N-labelled compound
DnaK-ABD [2] = target: T1, DnaK-ABD; assay: 1H, […] HSQC NMR of bound […]NH4+ (indirect); assay type: binding; details: 0.5 mM ADP added together with 50 mM phosphate; 150 mM 15NH4Cl, 5 mM MgCl2, 1 mM DTT, pH 7.5

T1 sequence (Q56235 1-381): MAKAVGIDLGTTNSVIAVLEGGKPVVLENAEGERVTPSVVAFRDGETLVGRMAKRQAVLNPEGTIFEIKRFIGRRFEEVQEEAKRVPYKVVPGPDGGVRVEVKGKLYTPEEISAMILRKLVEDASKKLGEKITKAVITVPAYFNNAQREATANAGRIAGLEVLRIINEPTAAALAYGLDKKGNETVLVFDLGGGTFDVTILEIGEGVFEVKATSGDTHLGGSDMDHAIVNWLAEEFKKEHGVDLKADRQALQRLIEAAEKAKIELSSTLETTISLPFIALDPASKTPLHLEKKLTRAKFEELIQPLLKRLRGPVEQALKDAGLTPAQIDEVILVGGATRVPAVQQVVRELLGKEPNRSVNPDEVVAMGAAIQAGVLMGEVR
HDAC8, sequence (Q9BY41 whole entry): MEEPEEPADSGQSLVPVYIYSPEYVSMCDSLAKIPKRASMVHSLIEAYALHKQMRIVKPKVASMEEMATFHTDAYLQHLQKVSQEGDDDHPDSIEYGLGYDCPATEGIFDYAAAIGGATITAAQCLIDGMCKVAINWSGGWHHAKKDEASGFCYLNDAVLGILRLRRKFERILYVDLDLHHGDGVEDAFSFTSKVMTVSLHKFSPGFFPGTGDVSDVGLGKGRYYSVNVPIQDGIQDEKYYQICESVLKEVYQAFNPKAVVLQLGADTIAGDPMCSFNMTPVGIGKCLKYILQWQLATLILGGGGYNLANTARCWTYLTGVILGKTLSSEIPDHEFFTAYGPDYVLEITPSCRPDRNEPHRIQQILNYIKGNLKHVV

SMILES | Kd (HDAC8) [mM] | 1H,15N HSQC NMR and 15N-edited NOESY (DnaK-ABD [1]) | 1H,15N HSQC NMR of bound 15NH4+ (indirect) (DnaK-ABD [2])
N [15NH4+] | 13 ± 8 | addition of ADP and Pi resulted in the appearance of two clear peaks | –
Nc1ncnc2c1ncn2[C@@H]1O[C@H](COP(=O)(O)OP(=O)(O)O)[C@@H](O)[C@H]1O [ADP] | – | – | binding of ADP and Pi protects the ammonium protons from solvent exchange
